Experimental data from patent US11008346B2, “Beta-lactamase inhibitors” (priority 2014, dated 2021).

Tests used:
[1] = molecular target: T1, SHV-5 β-lactamase (Klebsiella pneumoniae, UniProt P0A3M1); test: β-lactamase enzyme inhibition, SHV-5; assay type: biochemical
T1 construct: made in house; host or cells: E. coli BL21(DE3)
Method in brief: (§1)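 Native untagged enzymes expressed in E. coli BL21(DE3) and purified by cation exchange and gel filtration were preincubated with inhibitor for 15 min at 37° C. Hydrolysis was followed for 10 min: nitrocefin (100 μM final, 486 nm) for OXA-1 and p99 AmpC, imipenem (300 nm) for KPC-2, cefotaxime (260 nm) for SHV-5; IC50 from initial rates.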

[2] = molecular target: T2, KPC-2 β-lactamase (Klebsiella pneumoniae, UniProt Q9F663); test: β-lactamase enzyme inhibition, KPC-2; assay type: biochemical; details: imipenem substrate, 300 nm; 15 min at 37° C. preincubation; read-out: IC50 KPC-2 (Class A)
T2 construct: made in house; host or cells: E. coli BL21(DE3)
Method in brief: as §1

[3] = molecular target: T3, VIM-2 metallo β-lactamase (Pseudomonas aeruginosa, UniProt Q9K2N0); test: β-lactamase enzyme inhibition, VIM-2; assay type: biochemical; details: Nitrocefin 100 μM, 486 nm; 15 min at 37° C. preincubation; read-out: IC50 VIM-2 (Class B)
T3 construct: made in house; host or cells: E. coli BL21(DE3)
Method in brief: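 VIM-2 purified by Q sepharose anion exchange (50 mM Hepes pH 7.5, 0-600 mM NaCl gradient, two runs, >90% purity). Enzyme preincubated with inhibitor 15 min at 37° C; nitrocefin 100 μM final, absorbance at 486 nm followed 10 min. IC50 from initial hydrolysis rates versus inhibitor-free controls.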

[4] = molecular target: T4, p99 AmpC β-lactamase (Enterobacter cloacae, UniProt P05364); test: β-lactamase enzyme inhibition, p99 AmpC; assay type: biochemical
T4 construct: made in house; host or cells: E. coli BL21(DE3)
Method in brief: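 Native untagged E. cloacae p99 AmpC was expressed in E. coli BL21(DE3) and purified by cation exchange and gel filtration. Enzyme was preincubated with inhibitor at 37°C for 15 min.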

[5] = molecular target: T5, OXA-1 β-lactamase (Escherichia coli, UniProt P13661); test: β-lactamase enzyme inhibition, OXA-1; assay type: biochemical; details: Nitrocefin 100 μM, 486 nm; 15 min at 37° C. preincubation; read-out: IC50 OXA-1 (Class D)
T5 construct: made in house; host or cells: E. coli BL21(DE3)
Method in brief: as §1

[6] = tested on: E. coli ESBL4 expressing CTX-M-15; test: broth microdilution MIC, E. coli CTX-M-15; assay type: cell-based; details: Fixed CAZ (ceftazidime) 4 μg/mL
Method in brief: (§2)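 Potentiation MICs were run by CLSI broth microdilution in cation-adjusted Mueller Hinton broth, with test compound serially diluted 2-fold from 32 to 0.25 μg/mL against a fixed 4 μg/mL beta-lactam overlay. Plates were incubated 16-20 hours at 37° C and the MIC was read visually.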

[7] = tested on: E. cloacae 144200 expressing Class C P99 AmpC; test: broth microdilution MIC, E. cloacae P99; assay type: cell-based; details: Fixed CAZ (ceftazidime) 4 μg/mL
Method in brief: as §2

[8] = tested on: K. pneumoniae 156319 expressing KPC-3; test: broth microdilution MIC, K. pneumoniae KPC-3; assay type: cell-based; details: Fixed Mero (meropenem) 4 μg/mL
Method in brief: as §2

[9] = tested on: P. aeruginosa Ps296 expressing VIM-2; test: broth microdilution MIC, P. aeruginosa VIM-2; assay type: cell-based; details: Fixed Mero (meropenem) 4 μg/mL
Method in brief: as §2

[10] = tested on: K. pneumoniae A-1797 expressing KPC-2 and VIM-4; test: broth microdilution MIC, K. pneumoniae KPC-2 and VIM-4; assay type: cell-based; details: Fixed Mero (meropenem) 4 μg/mL
Method in brief: as §2

[11] = tested on: S. aureus MSSA-7 producing penicillinase PC-1; test: broth microdilution MIC, S. aureus PC-1; assay type: cell-based; details: Fixed Pip (piperacillin) 4 μg/mL
Method in brief: as §2

T2 sequence (Q9F663 25-293, looked up): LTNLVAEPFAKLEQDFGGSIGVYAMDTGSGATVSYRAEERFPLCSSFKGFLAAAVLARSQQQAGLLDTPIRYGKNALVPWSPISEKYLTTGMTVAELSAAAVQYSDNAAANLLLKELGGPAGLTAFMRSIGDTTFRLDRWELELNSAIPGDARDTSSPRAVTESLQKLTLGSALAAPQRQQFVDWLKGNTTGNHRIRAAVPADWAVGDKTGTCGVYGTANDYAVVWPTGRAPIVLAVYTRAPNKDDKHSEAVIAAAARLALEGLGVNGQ
T4 sequence (P05364 21-381): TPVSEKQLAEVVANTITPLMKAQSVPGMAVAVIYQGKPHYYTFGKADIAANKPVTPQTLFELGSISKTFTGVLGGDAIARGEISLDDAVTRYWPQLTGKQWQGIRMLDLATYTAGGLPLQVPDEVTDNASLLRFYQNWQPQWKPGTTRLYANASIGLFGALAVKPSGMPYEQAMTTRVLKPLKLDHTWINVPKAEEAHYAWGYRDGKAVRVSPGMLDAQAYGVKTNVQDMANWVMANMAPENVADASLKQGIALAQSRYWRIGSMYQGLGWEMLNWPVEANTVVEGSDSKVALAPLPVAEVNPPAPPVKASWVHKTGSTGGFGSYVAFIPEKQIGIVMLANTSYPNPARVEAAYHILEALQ
T1 sequence (P0A3M1 22-286): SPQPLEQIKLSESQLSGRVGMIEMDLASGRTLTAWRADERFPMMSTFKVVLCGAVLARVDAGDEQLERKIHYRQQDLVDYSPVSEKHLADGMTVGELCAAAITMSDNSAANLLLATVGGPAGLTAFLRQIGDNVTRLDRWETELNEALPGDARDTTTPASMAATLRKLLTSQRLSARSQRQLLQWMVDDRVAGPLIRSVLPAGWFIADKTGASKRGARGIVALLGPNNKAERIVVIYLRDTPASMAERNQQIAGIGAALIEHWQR
T5 sequence (P13661 26-276): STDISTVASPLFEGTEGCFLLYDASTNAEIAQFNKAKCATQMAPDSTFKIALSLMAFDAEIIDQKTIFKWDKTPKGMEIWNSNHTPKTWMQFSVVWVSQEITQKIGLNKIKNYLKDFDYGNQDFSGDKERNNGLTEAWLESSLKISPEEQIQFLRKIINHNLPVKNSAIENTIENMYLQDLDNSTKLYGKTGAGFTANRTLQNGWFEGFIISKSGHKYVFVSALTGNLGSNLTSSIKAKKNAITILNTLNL

| Compound | IC50 [1] | IC50 [2] | IC50 [3] | IC50 [4] | IC50 [5] | MIC of exemplary compounds in presence of fixed β-lactams, E. coli ESBL4 CTX-M-15 [6] | MIC of exemplary compounds in presence of fixed β-lactams, E. cl. 144200 p99 AmpC [7] | MIC of exemplary compounds in presence of fixed β-lactams, K.P. 156319 KPC-3 [8] | MIC of exemplary compounds in presence of fixed β-lactams, P. aerug. Ps296 VIM-2 [9] | MIC of exemplary compounds in presence of fixed β-lactams, K.P. A-1797 KPC-2 VIM-4 [10] | MIC of exemplary compounds in presence of fixed β-lactams, S. aureus MSSA-7 PC-1 [11] |
| --- | --- | --- | --- | --- | --- | --- | --- | --- | --- | --- | --- |
| O=C(CCn1ccnc1)N[C@H]1Cc2cccc(C(=O)O)c2OB1O [Example 29, (R)-2-Hydroxy-3-(3-imidazol-1-yl-propionylamino)-3,4-dihydro-2H-benzo[e][1,2]oxaborinine-8-carboxylic acid] | < 100 nM | < 100 nM | 1000 to 10000 nM | < 100 nM | < 100 nM | C (C represents the MIC in the presence of ≤4 g/mL of a β-lactamase inhibitor) | C (C represents the MIC in the presence of ≤4 g/mL of a β-lactamase inhibitor) | C (C represents the MIC in the presence of ≤4 g/mL of a β-lactamase inhibitor) | C (C represents the MIC in the presence of ≤4 g/mL of a β-lactamase inhibitor) | A (A represents an MIC of the fixed β-lactam antibiotic in the presence of >32 g/mL of a β-lactamase inhibitor) | C (C represents the MIC in the presence of ≤4 g/mL of a β-lactamase inhibitor) |
| O=C(CN1CCOC1=O)N[C@H]1Cc2cccc(C(=O)O)c2OB1O [Example 30, (R)-2-Hydroxy-3-[2-(2-oxo-oxazolidin-3-yl)-acetylamino]-3,4-dihydro-2H-benzo[e][1,2]oxaborinine-8-carboxylicacid] | < 100 nM | < 100 nM | 100 to 1000 nM | < 100 nM | < 100 nM | C (C represents the MIC in the presence of ≤4 g/mL of a β-lactamase inhibitor) | C (C represents the MIC in the presence of ≤4 g/mL of a β-lactamase inhibitor) | C (C represents the MIC in the presence of ≤4 g/mL of a β-lactamase inhibitor) | C (C represents the MIC in the presence of ≤4 g/mL of a β-lactamase inhibitor) | C (C represents the MIC in the presence of ≤4 g/mL of a β-lactamase inhibitor) | C (C represents the MIC in the presence of ≤4 g/mL of a β-lactamase inhibitor) |
| O=C(CCc1nccs1)N[C@H]1Cc2cccc(C(=O)O)c2OB1O [Example 31, (R)-2-hydroxy-3-(3-(thiazol-2-yl)propanamido)-3,4-dihydro-2H-benzo[e][1,2]oxaborinine-8-carboxylic acid] | < 100 nM | < 100 nM | 1000 to 10000 nM | < 100 nM | < 100 nM | C (C represents the MIC in the presence of ≤4 g/mL of a β-lactamase inhibitor) | C (C represents the MIC in the presence of ≤4 g/mL of a β-lactamase inhibitor) | C (C represents the MIC in the presence of ≤4 g/mL of a β-lactamase inhibitor) | C (C represents the MIC in the presence of ≤4 g/mL of a β-lactamase inhibitor) | B (B represents the MIC in the presence of between 8 and 32 g/mL of a β-lactamase inhibitor) | C (C represents the MIC in the presence of ≤4 g/mL of a β-lactamase inhibitor) |
| O=C(CCc1cncs1)N[C@H]1Cc2cccc(C(=O)O)c2OB1O [Example 32, (R)-2-hydroxy-3-(3-(thiazol-5-yl)propanamido)-3,4-dihydro-2H-benzo[e][1,2]oxaborinine-8-carboxylicacid] | < 100 nM | < 100 nM | 1000 to 10000 nM | < 100 nM | < 100 nM | C (C represents the MIC in the presence of ≤4 g/mL of a β-lactamase inhibitor) | C (C represents the MIC in the presence of ≤4 g/mL of a β-lactamase inhibitor) | C (C represents the MIC in the presence of ≤4 g/mL of a β-lactamase inhibitor) | C (C represents the MIC in the presence of ≤4 g/mL of a β-lactamase inhibitor) | B (B represents the MIC in the presence of between 8 and 32 g/mL of a β-lactamase inhibitor) | C (C represents the MIC in the presence of ≤4 g/mL of a β-lactamase inhibitor) |
| O=C(CN1CCCC1=O)N[C@H]1Cc2cccc(C(=O)O)c2OB1O [Example 33, (R)-2-Hydroxy-3-[2-(2-oxo-pyrrolidin-1-yl)-acetylamino]-3,4-dihydro-2H-benzo[e][1,2]oxaborinine-8-carboxylic acid] | < 100 nM | < 100 nM | 1000 to 10000 nM | < 100 nM | < 100 nM | C (C represents the MIC in the presence of ≤4 g/mL of a β-lactamase inhibitor) | C (C represents the MIC in the presence of ≤4 g/mL of a β-lactamase inhibitor) | C (C represents the MIC in the presence of ≤4 g/mL of a β-lactamase inhibitor) | C (C represents the MIC in the presence of ≤4 g/mL of a β-lactamase inhibitor) | C (C represents the MIC in the presence of ≤4 g/mL of a β-lactamase inhibitor) | C (C represents the MIC in the presence of ≤4 g/mL of a β-lactamase inhibitor) |
| O=C(CCN1C(=O)CCC1=O)N[C@H]1Cc2cccc(C(=O)O)c2OB1O [Example 34, (R)-3-[3-(2,5-Dioxo-pyrrolidin-1-yl)-propionylamino]-2-hydroxy-3,4-dihydro-2H-benzo[e][1,2]oxaborinine-8-carboxylicacid] | < 100 nM | < 100 nM | 1000 to 10000 nM | < 100 nM | < 100 nM | C (C represents the MIC in the presence of ≤4 g/mL of a β-lactamase inhibitor) | C (C represents the MIC in the presence of ≤4 g/mL of a β-lactamase inhibitor) | B (B represents the MIC in the presence of between 8 and 32 g/mL of a β-lactamase inhibitor) | B (B represents the MIC in the presence of between 8 and 32 g/mL of a β-lactamase inhibitor) | B (B represents the MIC in the presence of between 8 and 32 g/mL of a β-lactamase inhibitor) | C (C represents the MIC in the presence of ≤4 g/mL of a β-lactamase inhibitor) |
